Reference: US9981942B2, “Piperidine derivatives having multimodal activity against pain” (LABORATORIOS DEL DR. ESTEVE S.A., priority 2013, dated 2018)

test system: σ1 receptor and the μ-opiod receptor; assay: μ and σ1 dual binding: combined class from the Ki of both radioligand assays; design: species or system human; key to μ and σ1 dual binding: +: Both Ki-μ and Ki-σ1>=500 nM; ++: One Ki<500 nM while the other Ki is >=500 nM; +++: Both Ki-μ and Ki-σ1<500 nM; ++++: Both Ki-μ and Ki-σ1<100 nM; settings: combined class for Ki-μ and Ki-σ1; transfected HEK-293 membranes (σ1), transfected CHO-K1 cell membranes (μ)
Experimental: To investigate binding properties of σ1 receptor ligands to human σ1 receptor, transfected HEK-293 membranes and [^3H](+)-pentazocine (Perkin Elmer, NET-1056), as the radioligand, were used. The assay was carried out with 7 μg of membrane suspension, 5 nM of [^3H](+)-pentazocine in either absence or presence of either buffer or 10 μM Haloperidol for total and non-specific binding, respectively. Binding buffer contained Tris-HCl 50 mM at pH 8. Plates were incubated at 37° C. for 120 minutes. After the incubation period, the reaction mix was then transferred to MultiScreen HTS, FC plates (Millipore), filtered and plates were washed 3 times with ice-cold 10 mM Tris-HCL (pH7.4). Filters were dried and counted at approximately 40% efficiency in a MicroBeta scintillation counter (Perkin-Elmer) using EcoScint liquid scintillation cocktail
To investigate binding properties of mu-opioid receptor ligands to human μ-opioid receptor, transfected CHO-K1 cell membranes and [^3H]-DAMGO (Perkin Elmer, ES-542-C), as the radioligand, were used. The assay was carried out with 20 μg of membrane suspension, 1 nM of [^3H]-DAMGO in either absence or presence of either buffer or 10 μM Naloxone for total and non-specific binding, respectively. Binding buffer contained Tris-HCl 50 mM, MgCl2 5 mM at pH 7.4. Plates were incubated at 27° C. for 60 minutes. After the incubation period, the reaction mix was then transferred to MultiScreen HTS, FC plates (Millipore), filtered and plates were washed 3 times with ice-cold 10 mM Tris-HCL (pH 7.4). Filters were dried and counted at approximately 40% efficiency in a MicroBeta scintillation counter (Perkin-Elmer) using EcoScint liquid scintillation cocktail.
The following scale as been adopted for representing the binding to the σ1 receptor and the μ-opiod receptor expressed as Ki: • + Both Ki-μ and Ki-σ1>=500 nM • ++ One Ki<500 nM while the other Ki is >=500 nM • +++ Both Ki-μ and Ki-σ1<500 nM • ++++ Both Ki-μ and Ki-σ1<100 nM

**Q.** CCC(=O)Nc1cccc(C2CCN(Cc3cn(-c4ccccc4F)nn3)CC2)n1 [Example 211, N-(6-(1-((1-(2-fluorophenyl)-1H-1,2,3-triazol-4-yl)methyl)piperidin-4-yl)pyridin-2-yl)propionamide] was tested. Which “μ and σ1 dual binding” value did it give?
**A.** ++

**Q.** With CC(C)S(=O)(=O)Nc1cccc(C2CCN(Cc3cn(Cc4ccc(C(F)(F)F)nc4)nn3)CC2)c1 [Example 124, N-(3-(1-((1-((6-(trifluoromethyl)pyridin-3-yl)methyl)-1H-1,2,3-triazol-4-yl)methyl)piperidin-4-yl)phenyl)propane-2-sulfonamide] as the molecule, how does the “μ and σ1 dual binding” value read?
**A.** ++

**Q.** Which “μ and σ1 dual binding” value does the source give for CC(C)S(=O)(=O)Nc1cccc(C2CCN(Cc3cn(Cc4ccc(F)cn4)nn3)CC2)n1 [Example 210, N-(6-(1-((1-((5-fluoropyridin-2-yl)methyl)-1H-1,2,3-triazol-4-yl)methyl)piperidin-4-yl)pyridin-2-yl)propane-2-sulfonamide] here?
**A.** ++

**Q.** With CC(C)S(=O)(=O)Nc1cccc(C2CCN(Cc3cn(Cc4ncccc4C(F)(F)F)nn3)CC2)c1 [Example 121, N-(3-(1-((1-((3-(trifluoromethyl)pyridin-2-yl)methyl)-1H-1,2,3-triazol-4-yl)methyl)piperidin-4-yl)phenyl)propane-2-sulfonamide] as the molecule, how does the “μ and σ1 dual binding” value read?
**A.** ++

**Q.** With CS(=O)(=O)Nc1cccc(C2CCN(Cc3cn(C(CO)c4ccccc4)nn3)CC2)c1 (stereo not shown) [Example 131, N-(3-(1-((1-(2-hydroxy-1-phenylethyl)-1H-1,2,3-triazol-4-yl)methyl)piperidin-4-yl)phenyl)methanesulfonamide] as the molecule, how does the “μ and σ1 dual binding” value read?
**A.** ++

**Q.** How did the “μ and σ1 dual binding” value turn out when CC(C)S(=O)(=O)Nc1cccc(C2CCN(Cc3cc(-c4ccccn4)no3)CC2)c1 [Example 181, N-(3-(1-((3-(pyridin-2-yl)isoxazol-5-yl)methyl)piperidin-4-yl)phenyl)propane-2-sulfonamide] was run?
**A.** ++

**Q.** For CC(=O)Nc1nc2ccc(C3CCN(Cc4cn(-c5ccccc5)nn4)CC3)cc2s1 [Example 74, N-(6-(1-((1-phenyl-1H-1-1,2,3-triazol-4-yl)methyl)piperidin-4-yl)benzo[d]thiazol-2-yl)acetamide], which “μ and σ1 dual binding” value is on record?
**A.** ++

**Q.** How did the “μ and σ1 dual binding” value turn out when Oc1ncccc1C1CCN(Cc2cn(-c3ccccc3)nn2)CC1 [Example 205, 3-(1-((1-phenyl-1H-1,2,3-triazol-4-yl)methyl)piperidin-4-yl)pyridin-2-ol] was run?
**A.** ++

**Q.** How did the “μ and σ1 dual binding” value turn out when COc1c(NS(C)(=O)=O)cccc1C1CCN(Cc2cn(Cc3ccccc3)nn2)CC1 [Example 102, N-(3-(1-((1-benzyl-1H-1,2,3-triazol-4-yl)methyl)piperidin-4-yl)-2-methoxyphenyl)methanesulfonamide] was run?
**A.** ++

**Q.** For CS(=O)(=O)Nc1cccc(C2CCN(Cc3cn([C@@H]4c5ccccc5C[C@H]4O)nn3)CC2)c1 (racemic) [Example 70, (±)-(trans)-N-(3-(1-((1-(2-hydroxy-2,3-dihydro-1H-inden-1-yl)-1H-1,2,3-triazol-4-yl)methyl)piperidin-4-yl)phenyl)methanesulfonamide], which “μ and σ1 dual binding” value is on record?
**A.** ++

**Q.** Which “μ and σ1 dual binding” value does the source give for CS(=O)(=O)Nc1cccc(C2CCN(Cc3ncn(-c4ccccc4)n3)CC2)c1 [Example 182, N-(3-(1-((1-phenyl-1H-1,2,4-triazol-3-yl)methyl)piperidin-4-yl)phenyl)methanesulfonamide] here?
**A.** ++

**Q.** For CC(C)S(=O)(=O)Nc1cccc([C@H]2CCN(Cc3cn(-c4ccccc4)nn3)C[C@H]2O)c1 (racemic) [Example 127, N-(3-((3S,4R)-3-hydroxy-1-((1-phenyl-1H-1,2,3-triazol-4-yl)methyl)piperidin-4-yl)phenyl)propane-2-sulfonamide], which “μ and σ1 dual binding” value is on record?
**A.** ++

same assay, conditions: transfected HEK-293 membranes (σ1), transfected CHO-K1 cell membranes (μ)

**Q.** How did the Ki range for both μ and σ1 (dual-binding class) turn out when Oc1cccc(C2CCN(Cc3cn(Cc4ccccn4)nn3)CC2)c1 [Example 55, 3-(1-((1-(pyridin-2-ylmethyl)-1H-1,2,3-triazol-4-yl)methyl)piperidin-4-yl)phenol] was run?
**A.** < 500 nM

**Q.** CS(=O)(=O)Nc1cccc(C2CCN(Cc3cn(-c4ccccc4)nn3)CC2)c1F [Example 53, N-(2-fluoro-3-(1-((1-phenyl-1H-1,2,3-triazol-4-yl)methy)piperidin-4-yl)phenyl)methanesulfonamide] was tested. Which Ki range for both μ and σ1 (dual-binding class) did it give?
**A.** < 100 nM

**Q.** For Oc1cccc(C2CCN(Cc3cn([C@@H]4CCCC[C@H]4O)nn3)CC2)c1 [Example 66, 3-(1-((1-((1R,2R)-2-hydroxycyclohexyl)-1H-1,2,3-triazol-4-yl)methyl)piperidin-4-yl)phenol], which Ki range for both μ and σ1 (dual-binding class) is on record?
**A.** < 500 nM

**Q.** Oc1cccc(C2CCN(Cc3cn(Cc4cccnc4)nn3)CC2)c1 [Example 145, 3-(1-((1-(pyridin-3-ylmethyl)-1H-1,2,3-triazol-4-yl)methyl)piperidin-4-yl)phenol] was tested. Which Ki range for both μ and σ1 (dual-binding class) did it give?
**A.** < 500 nM

**Q.** How did the Ki range for both μ and σ1 (dual-binding class) turn out when Oc1cc(C2CCN(Cc3cn(Cc4ccccn4)nn3)CC2)ccc1F [Example 136, 2-fluoro-5-(1-((1-(pyridin-2-ylmethyl)-1H-1,2,3-triazol-4-yl)methyl)piperidin-4-yl)phenol] was run?
**A.** < 500 nM

**Q.** CCC(=O)Nc1cccc(C2CCN(Cc3cn(-c4ccccc4)nn3)CC2)c1 [Example 7, N-(3-(1-((1-phenyl-1H-1,2,3-triazol-4-yl)methyl)piperidin-4-yl)phenyl)propionamide] was tested. Which Ki range for both μ and σ1 (dual-binding class) did it give?
**A.** < 500 nM

**Q.** Which Ki range for both μ and σ1 (dual-binding class) does the source give for CCC(=O)Nc1cccc(C2CCN(Cc3cnn(-c4ccccc4)c3)CC2)n1 [Example 202, N-(6-(1-((1-phenyl-1H-pyrazol-4-yl)methyl)piperidin-4-yl)pyridin-2-yl)propionamide] here?
**A.** < 100 nM

**Q.** For N#Cc1ccc(Cn2cc(CN3CCC(c4cccc(O)c4)CC3)nn2)cc1 [Example 43, 4-((4-((4-(3-hydroxyphenyl)piperidin-1-yl)methyl)-1H-1,2,3-triazol-1-yl)methyl)benzonitrile], which Ki range for both μ and σ1 (dual-binding class) is on record?
**A.** < 100 nM

**Q.** Oc1cccc(C2CCN(Cc3cc(-c4ccccc4)no3)CC2)c1 [Example 176, 3-(1-((3-phenylisoxazol-5-yl)methyl)piperidin-4-yl)phenol] was tested. Which Ki range for both μ and σ1 (dual-binding class) did it give?
**A.** < 100 nM

**Q.** Which Ki range for both μ and σ1 (dual-binding class) does the source give for Oc1ccccc1C1CCN(Cc2cn(-c3ccccc3)nn2)CC1 [Example 222, 2-(1-((1-phenyl-1H-1,2,3-triazol-4-yl)methyl)piperidin-4-yl)phenol] here?
**A.** < 500 nM

**Q.** Which Ki range for both μ and σ1 (dual-binding class) does the source give for Oc1cccc(C2CCN(Cc3cn(C4CCCCC4)nn3)CC2)c1 [Example 19, 3-(1-((1-cyclohexyl-1H-1,2,3-triazol-4-yl)methyl)piperidin-4-yl)phenol] here?
**A.** < 100 nM

**Q.** How did the Ki range for both μ and σ1 (dual-binding class) turn out when CNS(=O)(=O)c1cccc(C2CCN(Cc3cn(Cc4ccccn4)nn3)CC2)c1 [Example 138, N-methyl-3-(1-((1-(pyridin-2-ylmethyl)-1H-1,2,3-triazol-4-yl)methyl)piperidin-4-yl)benzenesulfonamide] was run?
**A.** ≥ 500 nM

**Q.** How did the Ki range for both μ and σ1 (dual-binding class) turn out when Oc1cccc(C2CCN(Cc3cn(Cc4ccncc4)nn3)CC2)c1 [Example 54, 3-(1-((1-(pyridin-4-ylmethyl)-1H-1,2,3-triazol-4-yl)methyl)piperidin-4-yl)phenol] was run?
**A.** < 500 nM

**Q.** CCC(=O)Nc1cccc(C2CCN(Cc3cc(-c4ccccc4)no3)CC2)n1 [Example 201, N-(6-(1-((3-phenylisoxazol-5-yl)methyl)piperidin-4-yl)pyridin-2-yl)propionamide] was tested. Which Ki range for both μ and σ1 (dual-binding class) did it give?
**A.** < 500 nM

**Q.** CS(=O)(=O)Nc1cc(C2CCN(Cc3cn(-c4ccccc4)nn3)CC2)ccc1F [Example 34, N-(2-fluoro-5-(1-((1-phenyl-1H-1,2,3-triazol-4-yl)methyl)piperidin-4-yl)phenyl)methanesulfonamide] was tested. Which Ki range for both μ and σ1 (dual-binding class) did it give?
**A.** < 500 nM

**Q.** Oc1cccc(C2CCN(Cc3cn(-c4ccc(F)cc4)nn3)CC2)c1 [Example 36, 3-(1-((1-(4-fluorophenyl)-1H-1,2,3-triazol-4-yl)methyl)piperidin-4-yl)phenol] was tested. Which Ki range for both μ and σ1 (dual-binding class) did it give?
**A.** < 100 nM

**Q.** Which Ki range for both μ and σ1 (dual-binding class) does the source give for Oc1cccc(C2CCN(Cc3cn(-c4ccccc4F)nn3)CC2)c1 [Example 142, 3-(1-((1-(2-fluorophenyl)-1H-1,2,3-triazol-4-yl)methyl)piperidin-4-yl)phenol] here?
**A.** < 100 nM

**Q.** With CS(=O)(=O)Nc1cccc(C2CCN(Cc3cc(-c4ccccc4)no3)CC2)c1 [Example 174, N-(3-(1-((3-phenylisoxazol-5-yl)methyl)piperidin-4-yl)phenyl)methanesulfonamide] as the molecule, how does the Ki range for both μ and σ1 (dual-binding class) read?
**A.** < 100 nM

**Q.** Which Ki range for both μ and σ1 (dual-binding class) does the source give for COc1c(NS(C)(=O)=O)cccc1C1CCN(Cc2cn(-c3ccccc3)nn2)CC1 [Example 101, N-(2-methoxy-3-(1-((1-phenyl-1H-1,2,3-triazol-4-yl)methyl)piperidin-4-yl)phenyl)methanesulfonamide] here?
**A.** < 500 nM
